# Biological target: T1, human kinase Mps-1 (Homo sapiens, UniProt P33981)
# T1 construct: N-terminally GST-tagged human full length recombinant Mps-1 kinase; GST (N); purchased Invitrogen, Karslruhe, Germany PV4071
# T1 sequence (P33981 1-857): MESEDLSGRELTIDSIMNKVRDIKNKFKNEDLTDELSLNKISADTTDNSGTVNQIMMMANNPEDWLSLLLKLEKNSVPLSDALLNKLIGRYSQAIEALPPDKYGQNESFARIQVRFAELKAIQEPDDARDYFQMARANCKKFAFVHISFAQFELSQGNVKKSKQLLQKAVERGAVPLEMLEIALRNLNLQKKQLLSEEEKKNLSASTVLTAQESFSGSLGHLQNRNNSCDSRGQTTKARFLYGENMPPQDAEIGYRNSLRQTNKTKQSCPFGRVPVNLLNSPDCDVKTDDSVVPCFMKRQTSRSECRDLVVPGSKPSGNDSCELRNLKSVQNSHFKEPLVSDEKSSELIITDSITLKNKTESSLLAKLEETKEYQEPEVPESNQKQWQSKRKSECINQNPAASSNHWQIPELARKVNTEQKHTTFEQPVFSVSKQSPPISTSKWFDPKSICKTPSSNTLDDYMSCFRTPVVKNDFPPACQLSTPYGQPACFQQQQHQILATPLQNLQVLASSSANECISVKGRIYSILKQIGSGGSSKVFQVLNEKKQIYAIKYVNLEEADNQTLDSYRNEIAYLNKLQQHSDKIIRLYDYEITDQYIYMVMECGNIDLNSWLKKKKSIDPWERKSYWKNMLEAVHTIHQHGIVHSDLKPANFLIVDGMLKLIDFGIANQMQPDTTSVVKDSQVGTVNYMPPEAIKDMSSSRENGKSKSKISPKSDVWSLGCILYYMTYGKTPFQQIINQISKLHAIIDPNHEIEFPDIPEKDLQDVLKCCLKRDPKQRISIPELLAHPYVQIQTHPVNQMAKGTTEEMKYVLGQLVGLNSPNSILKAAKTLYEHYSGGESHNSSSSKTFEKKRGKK
# Experiment: Mps-1 kinase assay (TR-FRET)
# Format: biochemical
# Settings: GST-tagged human full length recombinant Mps-1; 10 μM ATP; 1 μM peptide substrate; 60 min at 22° C.
# How it was run: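 N-terminally GST-tagged full-length recombinant human Mps-1, about 1 nM final, phosphorylates a biotinylated peptide. Product detected by TR-FRET from Eu-anti-phospho-Ser/Thr antibody to streptavidin-XLent after 1 h at 22° C.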
row,Compound,IC50 [nM]
1,"Cn1nccc1CNc1nc(-c2ccn[nH]2)cn2c(-c3ccc(C(=O)NC4CC4)c(F)c3)cnc12 [Example 1-66, N-cyclopropyl-2-fluoro-4-[8-{[(1-methyl-1H-pyrazol-5-yl)methyl]amino}-6-(1H-pyrazol-5-yl)imidazo[1,2-a]pyrazin-3-yl]benzamide]",30.5
2,"CC(C)CNc1nc(CCCO)cn2c(-c3ccc(C(=O)NC4CC4)cc3)cnc12 [Example 7-3, N-cyclopropyl-4-{6-(3-hydroxypropyl)-8-[(2-methylpropyl)amino]imidazo[1,2-a]pyrazin-3-yl}benzamide]",7.2
3,"O=C(NC1CC1)c1ccc(-c2cnc3c(NCC4CCCO4)nc(-c4ccoc4)cn23)cc1Cl (stereo not drawn) [Example 1-43, 2-chloro-N-cyclopropyl-4-{6-(furan-3-yl)-8-[(tetrahydrofuran-2-ylmethyl)amino]imidazo [1,2-a]pyrazin-3-yl} benzamide]",42.8
4,"NC/C=C\CCNc1nc(-c2ccccc2)cn2c(-c3ccc(C(=O)NC4CC4)cc3)cnc12 [Example 4-3, 4-(8-{[(3Z)-5-aminopent-3-en-1-yl]amino}-6-phenylimidazo[1,2-a]pyrazin-3-yl)-N-cyclopropylbenzamide]",4.6
5,"O=C(NC1CC1)c1ccc(-c2cnc3c(NCc4ccccn4)nc(-c4ccncc4)cn23)cc1 [Example 3-17, N-cyclopropyl-4-{6-(pyridin-4-yl)-8-[(pyridin-2-ylmethyl)amino]imidazo [1,2-a]pyrazin-3-yl} benzamide]",4.6
6,"CC(C)CNc1nc(-c2ccoc2)cn2c(-c3ccc(C(=O)NC4CC4)c(Cl)c3)cnc12 [Example 1-33, 2-chloro-N-cyclopropyl-4-{6-(furan-3-yl)-8-[(2-methylpropyl)amino]imidazo[1,2-a]pyrazin-3-yl}benzamide]",12.4
7,"Cc1cc(-c2cnc3c(NCCC(C)CO)nc(C4=CCOCC4)cn23)ccc1C(=O)NC1CC1 (stereo not drawn) [Example 6-6, N-cyclopropyl-4-{6-(3,6-dihydro-2H-pyran-4-yl)-8-[(4-hydroxy-3-methylbutyl)amino]imidazo[1,2-a]pyrazin-3-yl}-2-methylbenzamide]",20.6
8,"CCN1CCC(CNc2nc(C3=CCOCC3)cn3c(-c4ccc(C(=O)NC5CC5)c(C)c4)cnc23)C1 (stereo not drawn) [Example 6-19, N-cyclopropyl-4-[6-(3,6-dihydro-2H-pyran-4-yl)-8-{[(1-ethyl-pyrrolidin-3-yl)methyl]amino}imidazo[1,2-a]pyrazin-3-yl]-2-methylbenzamide]",338
9,"Cn1nccc1CNc1nc(-c2ccoc2)cn2c(-c3ccc(C(=O)NC4CC4)c(Cl)c3)cnc12 [Example 1-47, 2-chloro-N-cyclopropyl-4-[6-(furan-3-yl)-8-{[(1-methyl-1H-pyrazol-5-yl)methyl]amino}imidazo [1,2-a]pyrazin-3-yl] benzamide]",25.5
10,"Cc1cc(-c2cnc3c(NCC4CC(F)(F)C4)nc(C4=CCOCC4)cn23)ccc1C(=O)NC1CC1 [Example 6-17, N-cyclopropyl-4-[8-{[(3,3-difluoro-cyclobutyl)methyl]amino}-6-(3,6-dihydro-2H-pyran-4-yl)imidazo [1,2-a]pyrazin-3-yl]-2-methylbenzamide]",10.5
11,"Cc1cc(-c2cnc3c(NC[C@H](O)C(F)(F)F)nc(-c4ccnn4C)cn23)ccc1C(=O)NC1CC1 [Example 3-38, N-cyclopropyl-2-methyl-4-{6-(1-methyl-1H-pyrazol-5-yl)-8-[(3,3,3-trifluoro-2-hydroxypropyl)amino]imidazo[1,2-a]pyrazin-3-yl}benzamide]",7.2
12,"O=C(NC1CC1)c1ccc(-c2cnc3c(NCC4CCCO4)nc(C4=CCOCC4)cn23)cc1Cl (stereo not drawn) [Example 1-45, 2-chloro-N-cyclopropyl-4-{6-(3,6-dihydro-2H-pyran-4-yl)-8-[(tetrahydro-furan-2-ylmethyl)amino]imidazo[1,2-a]pyrazin-3-yl}benzamide]",105
13,"CC(C)CNc1nc(-c2cncc(F)c2)cn2c(-c3ccc(C(=O)NC4CC4)cc3)cnc12 [Example 1-21, N-cyclopropyl-4-{6-(5-fluoropyridin-3-yl)-8-[(2-methylpropyl)amino]imidazo[1,2-a]pyrazin-3-yl}benzamide]",19.4
14,"Cn1ccc(CNc2nc(-c3cccc(CC(N)=O)c3)cn3c(-c4ccc(C(=O)NC5CC5)cc4)cnc23)n1 [Example 1-94, 4-(6-[3-(2-Amino-2-oxo-ethyl)phenyl]-8-{[(1-methyl-1H-pyrazol-3-yl)methyl]amino}imidazo[1,2-a]pyrazin-3-yl)-N-cyclopropyl benzamide]",4.9
15,"CC(C)CNc1nc(-c2ccn[nH]2)cn2c(-c3ccc(C(=O)NC4CC4)c(F)c3)cnc12 [Example 1-51, N-cyclopropyl-2-fluoro-4-{8-[(2-methylpropyl)amino]-6-(1H-pyrazol-5-yl)imidazo[1,2-a]pyrazin-3-yl}benzamide]",8.3
16,"O=C(NC1CC1)c1ccc(-c2cnc3c(NCCCO)nc(-c4ccncc4)cn23)cc1 [Example 1-85, N-cyclopropyl-4-{8-[(3-hydroxypropyl)amino]-6-(pyridin-4-yl)imidazo[1,2-a]pyrazin-3-yl}benzamide]",9.1

# Stronger by IC50, values ahead:
row,IC50 [nM],Compound
1,3.9,"CC(C)CNc1nc(C2CCN(C)CC2)cn2c(-c3ccc(C(=O)NC4CC4)cc3)cnc12 [Example 7-6, N-cyclopropyl-4-{6-(1-methylpiperidin-4-yl)-8-[(2-methylpropyl)amino]imidazo[1,2-a]pyrazin-3-yl}benzamide]"
2,3.8,"Cn1nccc1CNc1nc(-c2cccc(CC(N)=O)c2)cn2c(-c3ccc(C(=O)NC4CC4)cc3)cnc12 [Example 1-92, 4-(6-[3-(2-Amino-2-oxo-ethyl)phenyl]-8-{[(1-methyl-1H-pyrazol-5-yl)methyl]amino}imidazo[1,2-a]pyrazin-3-yl)-N-cyclopropyl benzamide]"
3,2.8,"Cc1cc(-c2cnc3c(NCCC(F)(F)F)nc(C4=CCSCC4)cn23)ccc1C(=O)NC1CC1 [Example 1-79, N-cyclopropyl-4-{6-(3,6-dihydro-2H-thiopyran-4-yl)-8-[(3,3,3-trifluoro-propyl)amino]imidazo [1,2-a]pyrazin-3-yl}-2-methylbenzamide]"
4,2,"Cc1cc(-c2cnc3c(NCC(C)(C)O)nc(Oc4ccccc4)cn23)ccc1C(=O)NC1CC1 [Example 13-4, N-cyclopropyl-4-{8-[(2-hydroxy-2-methylpropyl)amino]-6-phenoxy-imidazo[1,2-a]pyrazin-3-yl}-2-methylbenzamide]"
5,1.6,"CC(=O)NCc1ccc(-c2cn3c(-c4ccc(C(=O)NC5CC5)cc4)cnc3c(NCC(C)C)n2)cc1 [Example 1-18, 4-(6-{4-[(acetylamino)methyl]phenyl}-8-[(2-methylpropyl)amino]imidazo[1,2-a]pyrazin-3-yl)-N-cyclopropyl-benzamide]"
6,3.3,"Cc1cc(-c2cnc3c(NCCC(F)(F)F)nc(-c4cc[nH]n4)cn23)ccc1C(=O)NC1CC1 [Example 1-77, N-cyclopropyl-2-methyl-4-{6-(1H-pyrazol-3-yl)-8-[(3,3,3-trifluoropropyl)amino]imidazo[1,2-a]pyrazin-3-yl}benzamide]"
7,1.5,"Cc1cc(-c2cn3c(-c4ccc(C(=O)NC5CC5)c(C)c4)cnc3c(NCCC(F)(F)F)n2)ccn1 [Example 1-68, N-cyclopropyl-2-methyl-4-{6-(2-methylpyridin-4-yl)-8-[(3,3,3-trifluoro-propyl)amino]imidazo [1,2-a]pyrazin-3-yl} benzamide]"
8,2.2,"CC(C)CNc1nc(-c2ccc3nccn3c2)cn2c(-c3ccc(C(=O)NC4CC4)cc3)cnc12 [Example 1-19, N-cyclopropyl-4-{6-(imidazo[1,2-a]pyridin-6-yl)-8-[(2-methylpropyl)amino]imidazo[1,2-a]pyrazin-3-yl}benzamide]"
9,3.5,"O=C(NC1CC1)c1ccc(-c2cnc3c(NCc4ccco4)nc(-c4ccncc4)cn23)cc1 [Example 3-20, N-cyclopropyl-4-{8-[(furan-2-ylmethyl)amino]-6-(pyridin-4-yl)imidazo [1,2-a]pyrazin-3-yl} benzamide]"
10,1.6,"O=C(NC1CC1)c1ccc(-c2cnc3c(NCC(O)C(F)(F)F)nc(-c4ccncc4)cn23)cc1 (stereo not drawn) [Example 3-21, N-cyclopropyl-4-{6-(pyridin-4-yl)-8-[(3,3,3-tri-fluoro-2-hydroxypropyl)amino]imidazo[1,2-a]pyrazin-3-yl}benzamide]"
11,3.9,"N#CCCNc1nc(-c2cccc(CC(N)=O)c2)cn2c(-c3ccc(C(=O)NC4CC4)cc3)cnc12 [Example 1-86, 4-{6-[3-(2-amino-2-oxo-ethyl)phenyl]-8-[(2-cyano-ethyl)amino]imidazo[1,2-a]pyrazin-3-yl}-N-cyclo-propylbenzamide]"
